Publication PMC3489957 (Bioorganic & medicinal chemistry, 2012)

What was measured:
in vitro = details: human, lymphocytic CEM cells
[1] = Cytotoxicity in Vero cells; format: cell-based; details: African green monkey, Vero kidney cells
[2] = Cytotoxicity in uninfected PHA-stimulated human PBM cells; format: cell-based; details: uninfected phytohemagglutinin-stimulated PBM cells

| Compound | IC50 (in vitro) | IC50 [1] | IC50 [2] |
| --- | --- | --- | --- |
| CC(C)(C)OC(=O)N1[C@H](CO)CC(F)(F)[C@@H]1n1cnc2c(Cl)ncnc21 [Analogue 26, 9-[(2R,5S)-N-tert-Butyloxycarbonyl-3,3-difluoro-5-(hydroxymethyl)pyrrolidin-2-yl]-6-chloropurine] |  | > 100 µM |  |
| CC(C)(C)OC(=O)N1[C@H](CO)CC(F)(F)[C@H]1n1cnc2c(Cl)ncnc21 [Analogue 27, 9-[(2S,5S)-N-tert-Butyloxycarbonyl-3,3-difluoro-5-(hydroxymethyl)pyrrolidin-2-yl]-6-chloropurine] |  | > 100 µM |  |
| CC(C)(C)OC(=O)N1[C@H](CO)CC(F)(F)[C@@H]1n1cnc2ncnc(Cl)c21 [Analogue 28, 7-[(2R,5S)-N-tert-Butyloxycarbonyl-3,3-difluoro-5-(hydroxymethyl)pyrrolidin-2-yl]-6-chloropurine] |  | > 100 µM |  |
| CC(C)(C)OC(=O)N1[C@H](CO)CC(F)(F)[C@H]1n1cnc2ncnc(Cl)c21 [Analogue 29, 7-[(2S,5S)-N-tert-Butyloxycarbonyl-3,3-difluoro-5-(hydroxymethyl)pyrrolidin-2-yl]-6-chloropurine] |  | > 100 µM |  |
| CC(C)(C)OC(=O)N1[C@H](CO)CC(F)(F)[C@@H]1n1cnc2c(N)ncnc21 [Analogue 30, 9-[(2R,5S)-N-tert-Butyloxycarbonyl-3,3-difluoro-5-(hydroxymethyl)pyrrolidin-2-yl]-adenine] | > 100 µM | > 100 µM | > 100 µM |
| CC(C)(C)OC(=O)N1[C@H](CO)CC(F)(F)[C@H]1n1cnc2c(N)ncnc21 [Analogue 31, 9-[(2S,5S)-N-tert-Butyloxycarbonyl-3,3-difluoro-5-(hydroxymethyl)pyrrolidin-2-yl]-adenine] | > 100 µM | > 100 µM | > 100 µM |
| CC(C)(C)OC(=O)N1[C@H](CO)CC(F)(F)[C@@H]1n1cnc2ncnc(N)c21 [Analogue 32, 7-[(2R,5S)-N-tert-Butyloxycarbonyl-3,3-difluoro-5-(hydroxymethyl)pyrrolidin-2-yl]-adenine] | > 100 µM | > 100 µM | > 100 µM |
| CC(C)(C)OC(=O)N1[C@H](CO)CC(F)(F)[C@H]1n1cnc2ncnc(N)c21 [Analogue 33, 7-[(2S,5S)-N-tert-Butyloxycarbonyl-3,3-difluoro-5-(hydroxymethyl)pyrrolidin-2-yl]-adenine] | > 100 µM | > 100 µM | > 100 µM |

More lines, main results first:

| IC50 (in vitro) | Compound | IC50 [1] | IC50 [2] |
| --- | --- | --- | --- |
| > 100 µM | CC(C)(C)OC(=O)N1[C@H](CO)CC(F)(F)[C@H]1n1ccc(=O)[nH]c1=O [Analogue 18a, 1-[(2S,5S)-N-tert-Butyloxycarbonyl-3,3-difluoro-5-(hydroxymethyl)pyrrolidin-2-yl]-uracil] | > 100 µM |  |
| > 100 µM | CC(C)(C)OC(=O)N1[C@H](CO)CC(F)(F)[C@H]1n1cc(F)c(=O)[nH]c1=O [Analogue 18d, 1-[(2S,5S)-N-tert-Butyloxycarbonyl-3,3-difluoro-5-(hydroxymethyl)pyrrolidin-2-yl]-5-fluorouracil] | > 100 µM |  |
| > 100 µM | CC(C)(C)OC(=O)N1[C@H](CO)CC(F)(F)[C@@H]1n1ccc(=O)[nH]c1=O [Analogue 19a, 1-[(2R,5S)-N-tert-butyloxycarbonyl-3,3-difluoro-5-(hydroxymethyl)pyrrolidin-2-yl]-uracil] |  |  |
| > 100 µM | CC(C)(C)OC(=O)N1[C@H](CO)CC(F)(F)[C@@H]1n1cc(F)c(=O)[nH]c1=O [Analogue 19d, 1-[(2R,5S)-N-tert-Butyloxycarbonyl-3,3-difluoro-5-(hydroxymethyl)pyrrolidin-2-yl]-5-fluorouracil] | > 100 µM |  |
